Data: patent publication US20110287100A1, “Galenic Formulations of Organic Compounds” (priority 2009, published 2011)
Where two headings read alike, the source gives them in different places.

Columns and labels:
[1] = Pharmacokinetics in pediatric patients, open label multiple dose study; settings: human, in vivo; for AUC: read-out: AUCtau, Mean; for Tmax: read-out: Tmax, Median; for half-life: read-out: T½, Mean (converted)
Method: An open label, multiple dose pharmacokinetic and pharmacodynamic study was performed in 24 pediatric patients, ages 6-17 years. […] Blood samples were collected on days one and eight and pharmacokinetics were assessed using a non-compartmental analysis approach.

Water solubility = assay type: physicochemical; settings: between pH 1 and 8
[2] = 2 mg/kg, 6-11 yrs old, 2 mg/kg, Day 1
[3] = 2 mg/kg, 6-11 yrs old, 2 mg/kg, Day 8
[4] = 2 mg/kg, 12-17 yrs old, 2 mg/kg, Day 1
[5] = 2 mg/kg, 12-17 yrs old, 2 mg/kg, Day 8
[6] = 6 mg/kg, 6-11 yrs old, 6 mg/kg, Day 1
[7] = 6 mg/kg, 6-11 yrs old, 6 mg/kg, Day 8
[8] = 6 mg/kg, 12-17 yrs old, 6 mg/kg, Day 1
[9] = 6 mg/kg, 12-17 yrs old, 6 mg/kg, Day 8

**Q.** Which Cmax [1, 2] does the source give for `COCCCOc1cc(C[C@@H](C[C@H](N)[C@@H](O)C[C@H](C(=O)NCC(C)(C)C(N)=O)C(C)C)C(C)C)ccc1OC` [Aliskiren, 2(S),4(S),5(S),7(S)—N-(3-amino-2,2-dimethyl-3-oxopropyl)-2,7-di(1-methylethyl)-4-hydroxy-5-amino-8-[4-methoxy-3-(3-methoxy-propoxy)phenyl]-octanamide] here?
**A.** 39 ng/mL

**Q.** And the AUC [1, 2]?
**A.** 149 ng·h/mL

**Q.** And the Tmax [1, 2]?
**A.** 0.5 h

**Q.** And the Cmax [1, 3]?
**A.** 48 ng/mL

**Q.** What about the AUC [1, 3] of the same compound?
**A.** 240 ng·h/mL

**Q.** And the Tmax [1, 3]?
**A.** 0.5 h

**Q.** And the half-life [1, 3]?
**A.** 2400 min

**Q.** And the Cmax [1, 4]?
**A.** 136 ng/mL

**Q.** And the AUC [1, 4]?
**A.** 391 ng·h/mL

**Q.** What about the Tmax [1, 4] of the same compound?
**A.** 1 h

**Q.** And the Cmax [1, 5]?
**A.** 279 ng/mL

**Q.** What about the AUC [1, 5] of the same compound?
**A.** 846 ng·h/mL

**Q.** What about the Tmax [1, 5] of the same compound?
**A.** 1 h

**Q.** What about the half-life [1, 5] of the same compound?
**A.** 2400 min

**Q.** And the Cmax [1, 6]?
**A.** 323 ng/mL

**Q.** What about the AUC [1, 6] of the same compound?
**A.** 1840 ng·h/mL

**Q.** What about the Tmax [1, 6] of the same compound?
**A.** 1.3 h

**Q.** What about the Cmax [1, 7] of the same compound?
**A.** 259 ng/mL

**Q.** And the AUC [1, 7]?
**A.** 956 ng·h/mL

**Q.** What about the Tmax [1, 7] of the same compound?
**A.** 0.8 h

**Q.** And the half-life [1, 7]?
**A.** 2160 min

**Q.** What about the Cmax [1, 8] of the same compound?
**A.** 424 ng/mL

**Q.** What about the AUC [1, 8] of the same compound?
**A.** 1800 ng·h/mL

**Q.** And the Tmax [1, 8]?
**A.** 1.8 h

**Q.** What about the Cmax [1, 9] of the same compound?
**A.** 486 ng/mL

**Q.** And the AUC [1, 9]?
**A.** 2090 ng·h/mL

**Q.** What about the Tmax [1, 9] of the same compound?
**A.** 2 h

**Q.** What about the half-life [1, 9] of the same compound?
**A.** 2520 min

**Q.** And the solubility (Water solubility)?
**A.** > 350 mg/mL
